From patent US4550170A, “6-Phenyl-2,3,5,6-tetrahydroimidazo-[2,1-b]-thiazole derivatives” (Institut Organicheskoi Khimii Akademii Nauk Ukrainskoi SSR, priority 1984, dated 1985)
Where a name gives a salt, the structure may show the parent alone. Read-outs that look alike come from different tables or passages of the source.

Key:
[1] = in vivo; conditions: mouse, sc
[2] = system: delayed-type hypersensitivity reaction; assay: delayed-type hypersensitivity reaction to rat's thymocytes in mice (popliteal lymph nodes); type: in vivo; conditions: for effect on the development of the delayed-type hypersensitivity reactions: Table 3 (mice and guinea pigs)
[3] = physical properties of the compounds; type: physicochemical
[4] = system: IgE antibodies in respiratory organs
Protocol: The local production of IgE-antibodies in trachea and lungs of rats of the lines WAY, August with a mass of 250-300 g was induced by means of a successive (with the interval of 40 minutes) dropping a 0.1% solution of histamine and ambrosia allergen (10,000 PNU/ml) into both nasal passages. […] One day after the administration of the allergen IgE-antibodies were determined in homogenates of trachea and lungs prepared at the rate of 0.1 ml of a physiological solution per 10 mg of the tissue by the method of indirect degranulation of obese cells.

[5] = system: delayed-type hypersensitivity reaction; assay: delayed-type hypersensitivity reaction to 2,4-dinitrochlorobenzene in guinea pigs; type: in vivo
[6] = system: allergic reaction of the delayed type in mice; assay: delayed-type (contact) hypersensitivity reaction to dinitrochlorobenzene, ear thickness in mice; type: in vivo, CBA mice; conditions: for Ear thickness, Control, Average value / Ear thickness, Control, Range of fluctuations: control (right) ear; for Ear thickness, Experiment, Average value / Ear thickness, Experiment, Range of fluctuations: test (left) ear; for dose sufficient for inhibition of the contact hypersensitivity, lower than that of levamizole: ratio to levamizole
[7] = system: virus of vesicular stomatitis; type: cell-based
[8] = in vivo; conditions: rabbit
[9] = system: human tonsillocytes; assay: natural cytotoxicity (natural killers) of human tonsillocytes, 51Cr release; type: cell-based; conditions: for Yield of 51Cr from target cells, natural cytotoxicity, average value: (III) significant P below 0.05
Text: (§1) The cytolytic effect of tonsillocytes was studied by the radioisotope method using Cr^51. On doing so, the deterioration of target cells (chicken's erythrocytes) by tonsil lymphocytes was regarded as spontaneous cytolysis, while the destruction of the target cells loaded, in addition to the isotopic tracer, with homologous antibodies in the sublytic dose was considered as antibody-dependent cytolysis. […] Afterwards they were twice washed by means of Medium 199 using centrifugation (105 g, 10 minutes). […] The degree of destruction of the target cells was determined radiometrically by the outcome of Cr^51 into the liquid phase.

[10] = system: human tonsillocytes; assay: antibody-dependent cytotoxicity of human tonsillocytes, 51Cr release; type: cell-based; conditions: for minimal effective concentration: Homo sapiens, read-out: concentration stimulating the antibody-dependent cytolytic activity
Text: as §1, with “On this basis, the effect of one of the lest toxic compound (III) out of those of the present invention was studied for the antibody-dependent cytolytic activity of cells. […] The cytolytic” for “The cytolytic”

[11] = system: Staphylococcus aureus, Proteum, Bacillus pyocyanes; assay: antibacterial activity in vitro, serial dilutions; type: cell-based; conditions: relative to compound (II)
Protocol: In the experiments in vitro the antibacterial activity of the compounds of the present invention was studied. To this end, serial dilutions of compounds (II) and (III) with a concentration of from 1% to 0.00001% were prepared and 0.1 ml of a microbal suspension was added thereto (Staphylococcus aureus, Proteum, Bacillus pyocyanes). The microbal load for staphylococcus was about 1×10^5 cells/ml, for Proteum and Bacillus pyocyanes -1×10^4 c cells/ml. […] The bacteria were incubated along with the compounds according to the present invention at the temperature of 37° C. […] Inoculations were effected by spreading 0.1 ml of a suspension of bacteria in a corresponding dilution of the compounds over the surface of an agar dish using a glass spatula.

[12] = in vivo; conditions: rat, rats
[13] = prior art, hydrochloride, cited from earlier work
[14] = system: immune system; conditions: prior art; cited from earlier work
[15] = system: splenocytes; assay: effect on cyclic nucleotides (c-AMP, c-GMP) and phosphodiesterase of c-AMP; type: cell-based
[16] = 100 μg/ml, negative = test value exceeded the control
[17] = 100 μg/ml, certainty: (II), (III) below 0.05, (I), levamizole above 0.05
[18] = 500 μg/ml, certainty: all below 0.05
[19] = 1 μg/ml, (III) significant P below 0.05
[20] = 10 μg/ml, (III) significant P below 0.05
[21] = 100 μg/ml, levamizole significant P below 0.05
[22] = second levamizole line, printed 2.5 mg/kg

## COC(=O)C[N+]1=C2SCCN2CC1c1ccccc1 (centres unmarked) [Compound (I), 2,3,5,6-tetrahydro-6-phenyl-7-methoxycarbonylmethylimidazo-[2,1-b]-thiazolium bromide]
[1]
  LD50: 262 mg/kg
[2]; [16]
  Difference in masses of popliteal lymph nodes in the control and test limb, Average value: -1.1 ± 0.08 mg
[2]; 500 μg/ml
  Difference in masses of popliteal lymph nodes in the control and test limb, Average value: +1.3 ± 0.2 mg
[3]
  solubility in acetone: sparingly soluble
  solubility in benzene: sparingly soluble
  solubility in lower alcohols: soluble
  solubility in water: soluble
[4]; [17]
  Percent of degranulated mastocytes, Lungs: 19.4 ± 1.8%
  Percent of degranulated mastocytes, Trachea: 17.8 ± 1.3%
[4]; [18]
  Percent of degranulated mastocytes, Lungs: 9.3 ± 0.8%
  Percent of degranulated mastocytes, Trachea: 7.0 ± 0.2%
[5]; [16]
  Difference in temperature of the pad surfaces, Average value: -1.5 ± 0.27 °C
  Difference in thickness of control and test talipes, Average value: -0.6 ± 0.062 mm

## CCCCCCCCCCOC(=O)C[N+]1=C2SCCN2CC1c1ccccc1 (centres unmarked) [Compound (II), 2,3,5,6-tetrahydro-6-phenyl-7-decyloxycarbonylmethylimidazo-[2,1-b]-thiazolium bromide]
[6]; 2.5 mg/kg per os
  Ear thickness, Control, Average value: 202.2 μm
  Ear thickness, Control, Range of fluctuations: 150-250 μm
  Ear thickness, Experiment, Average value: 222.8 μm
  Ear thickness, Experiment, Range of fluctuations: 175-300 μm
[6]; 25 mg/kg per os
  Ear thickness, Control, Average value: 178.9 μm
  Ear thickness, Control, Range of fluctuations: 150-240 μm
  Ear thickness, Experiment, Average value: 184.4 μm
  Ear thickness, Experiment, Range of fluctuations: 170-240 μm
[6]
  dose sufficient for inhibition of the contact hypersensitivity, lower than that of levamizole: 10 times
[7]; 1 μg/ml
  Degree of inhibition of the virus reproduction: 10 times
[7]; 10 μg/ml
  Degree of inhibition of the virus reproduction: 100 times
[1]
  LD50: 167 mg/kg
[2]; 1,000 μg/ml
  Difference in masses of popliteal lymph nodes in the control and test limb, Average value: +1.3 ± 0.29 mg
[3]
  solubility in lower alcohols: soluble
  solubility in water: soluble
[4]; [17]
  Percent of degranulated mastocytes, Lungs: 6.8 ± 0.9%
  Percent of degranulated mastocytes, Trachea: 15.0 ± 1.8%
[4]; [18]
  Percent of degranulated mastocytes, Lungs: 6.5 ± 0.9%
  Percent of degranulated mastocytes, Trachea: 3.5 ± 1.2%
[5]; 1,000 μg/ml
  Difference in temperature of the pad surfaces, Average value: +1.2 ± 0.16 °C
  Difference in thickness of control and test talipes, Average value: +0.63 ± 0.09 mm

## NC(=O)C[N+]1=C2SCCN2CC1c1ccccc1 (centres unmarked) [Compound (III), 2,3,5,6-tetrahydro-6-phenyl-7-carbamoylmethylimidazo-[2,1-b]-thiazolium bromide]
[8]; po
  LD50: 3330 mg/kg
[8]; sc
  LD50: 317 mg/kg
[9]; 1 μg/ml
  Yield of 51Cr from target cells, natural cytotoxicity, range of fluctuations: 7.0-60.0%
  Yield of 51Cr from target cells, natural cytotoxicity, average value: 30.6%
[9]; 10 μg/ml
  Yield of 51Cr from target cells, natural cytotoxicity, range of fluctuations: 7.0-42.0%
  Yield of 51Cr from target cells, natural cytotoxicity, average value: 28.8%
[9]; 100 μg/ml
  Yield of 51Cr from target cells, natural cytotoxicity, range of fluctuations: 1.0-40.0%
  Yield of 51Cr from target cells, natural cytotoxicity, average value: 24.8%
[6]; 2.5 mg/kg per os
  Ear thickness, Control, Average value: 176.7 μm
  Ear thickness, Control, Range of fluctuations: 110-210 μm
  Ear thickness, Experiment, Average value: 184.4 μm
  Ear thickness, Experiment, Range of fluctuations: 110-220 μm
[6]; 25 mg/kg per os
  Ear thickness, Control, Average value: 184.4 μm
  Ear thickness, Control, Range of fluctuations: 170-200 μm
  Ear thickness, Experiment, Average value: 190.0 μm
  Ear thickness, Experiment, Range of fluctuations: 170-200 μm
[6]
  dose sufficient for inhibition of the contact hypersensitivity, lower than that of levamizole: 10 times
[7]; 1 μg/ml
  Degree of inhibition of the virus reproduction: 10 times
[7]; 10 μg/ml
  Degree of inhibition of the virus reproduction: 100 times
[10]; 1 μg/ml
  Yield of 51Cr from target cells, antibody dependent cytotoxicity, range of fluctuations: 10.0-57.0%
[10]; [19]
  Yield of 51Cr from target cells, antibody dependent cytotoxicity, average: 23.2%
[10]; 10 μg/ml
  Yield of 51Cr from target cells, antibody dependent cytotoxicity, range of fluctuations: 13.0-36.0%
[10]; [20]
  Yield of 51Cr from target cells, antibody dependent cytotoxicity, average: 22.6%
[10]; 100 μg/ml
  Yield of 51Cr from target cells, antibody dependent cytotoxicity, range of fluctuations: 4.0-40.0%
[10]; [21]
  Yield of 51Cr from target cells, antibody dependent cytotoxicity, average: 19.1%
[10]
  minimal effective concentration: 1 to 10 µg/mL
[10]; ratio to levamizole
  stimulating concentration lower as compared to levamizole, antibody-dependent cytolytic activity: 10-100 times
[1]
  LD50: 1020 mg/kg
[11]
  antibacterial activity lower by a factor of: 2
[3]
  solubility in acetone: only slightly soluble
  solubility in benzene: only slightly soluble
  solubility in lower alcohols: well soluble
  solubility in water: well soluble
[4]; [17]
  Percent of degranulated mastocytes, Lungs: 10.6 ± 3.9%
  Percent of degranulated mastocytes, Trachea: 9.1 ± 2.1%
[4]; [18]
  Percent of degranulated mastocytes, Lungs: 6.1 ± 1.1%
  Percent of degranulated mastocytes, Trachea: 7.1 ± 1.7%
[12]; po, LD50 upon peroral administration, female
  LD50: 3500 mg/kg
[12]; po, LD50 upon peroral administration, male
  LD50: 5750 mg/kg
[12]; sc, LD50 upon subcutaneous injection, female
  LD50: 1420 mg/kg
[12]; sc, LD50 upon subcutaneous injection, male
  LD50: 2580 mg/kg

## c1ccc([C@H]2CN3CCSC3=N2)cc1 [levamizole, L-(-)-2,3,5,6-tetrahydro-6-phenylimidazo-[2,1-b]-thiazole hydrochloride, reference compound]
[9]; 1 μg/ml
  Yield of 51Cr from target cells, natural cytotoxicity, range of fluctuations: 3.0-41.0%
  Yield of 51Cr from target cells, natural cytotoxicity, average value: 16.2%
[9]; 10 μg/ml
  Yield of 51Cr from target cells, natural cytotoxicity, range of fluctuations: 5.0-53.0%
  Yield of 51Cr from target cells, natural cytotoxicity, average value: 18.4%
[9]; 100 μg/ml
  Yield of 51Cr from target cells, natural cytotoxicity, range of fluctuations: 5.0-49.0%
  Yield of 51Cr from target cells, natural cytotoxicity, average value: 20.5%
[9]; levamizole
  activity of natural killers of tonsil cells: not noticeably changed
[6]; 2.5 mg/kg per os
  Ear thickness, Control, Average value: 162.3 μm
  Ear thickness, Control, Range of fluctuations: 130-200 μm
  Ear thickness, Experiment, Average value: 210.0 μm
  Ear thickness, Experiment, Range of fluctuations: 160-280 μm
[6]; per os
  dose inhibiting the development of the contact hypersensitivity: 25 mg/kg
[6]; [22]
  Ear thickness, Control, Average value: 179.2 μm
  Ear thickness, Control, Range of fluctuations: 160-190 μm
  Ear thickness, Experiment, Average value: 179.2 μm
  Ear thickness, Experiment, Range of fluctuations: 170-190 μm
[7]; 1 μg/ml
  Degree of inhibition of the virus reproduction: 0 times
[7]; 10 μg/ml
  Degree of inhibition of the virus reproduction: 10 times
[10]; 1 μg/ml
  Yield of 51Cr from target cells, antibody dependent cytotoxicity, range of fluctuations: 1.0-32.0%
[10]; [19]
  Yield of 51Cr from target cells, antibody dependent cytotoxicity, average: 14.0%
[10]; 10 μg/ml
  Yield of 51Cr from target cells, antibody dependent cytotoxicity, range of fluctuations: 1.0-36.0%
[10]; [20]
  Yield of 51Cr from target cells, antibody dependent cytotoxicity, average: 14.2%
[10]; 100 μg/ml
  Yield of 51Cr from target cells, antibody dependent cytotoxicity, range of fluctuations: 8.0-39.0%
[10]; [21]
  Yield of 51Cr from target cells, antibody dependent cytotoxicity, average: 22.8%
[10]
  minimal effective concentration: 100 µg/mL
[13]
  toxicity and side effects: high toxicity and a high frequency of the observed side effects
[13]; listed as Levamizole
  toxicity and side effects: toxic and has diverse side effects
[11]
  antibacterial activity lower by a factor of: 2
[2]; 100 μg/ml
  effect on the development of the delayed-type hypersensitivity reactions: surely stimulates
[2]; [16]
  Difference in masses of popliteal lymph nodes in the control and test limb, Average value: -0.9 ± 0.13 mg
[2]; 500 μg/ml
  Difference in masses of popliteal lymph nodes in the control and test limb, Average value: +1.0 ± 0.13 mg
[2]; 1,000 μg/ml
  Difference in masses of popliteal lymph nodes in the control and test limb, Average value: +1.2 ± 0.12 mg
[2]; 500 and 1,000 μg/ml
  effect on the development of the delayed-type hypersensitivity reactions: effectively inhinits
[4]; [17]
  Percent of degranulated mastocytes, Lungs: 18.1 ± 1.9%
  Percent of degranulated mastocytes, Trachea: 17.3 ± 1.8%
[4]; [18]
  Percent of degranulated mastocytes, Lungs: 6.1 ± 1.1%
  Percent of degranulated mastocytes, Trachea: 7.4 ± 0.2%
[4]; rat, in vivo
  concentration inhibiting the formation of the IgE-antibodies in the respiratory organs: 500 µg/mL
[5]; [16]
  Difference in temperature of the pad surfaces, Average value: -1.3 ± 0.06 °C
  Difference in thickness of control and test talipes, Average value: -0.75 ± 0.08 mm
[5]; 1,000 μg/ml
  Difference in temperature of the pad surfaces, Average value: +1.1 ± 0.11 °C
  Difference in thickness of control and test talipes, Average value: +0.51 ± 0.064 mm
[14]
  effect in respect of various immunological responses: stimulating effect in respect of various immunological responses
[15]
  concentrations of c-AMP and c-GMP: reciprocal variations of concentrations of c-AMP and c-GMP
